For 32 compounds, IC50 and inhibition results are on record in ChEMBL document CHEMBL5038570, “Discovery of Novel Pyrrolo[2,3-d]pyrimidine-based Derivatives as Potent JAK/HDAC Dual Inhibitors for the Treatment of Refractory Solid Tumors” (J Med Chem, 2022).

Assay [1] addresses Tyrosine-protein kinase JAK2 (Homo sapiens, UniProt O60674). The assay can be described thus: Inhibition of JAK2 (unknown origin) preincubated for 60 mins followed by reagent A addition and measured after 60 mins in presence of ATP by using microplate reader method.
Assay [2] concerns the target T1, Protein deacetylase HDAC6 (Homo sapiens, UniProt Q9UBN7).
T1 sequence (Q9UBN7 whole entry): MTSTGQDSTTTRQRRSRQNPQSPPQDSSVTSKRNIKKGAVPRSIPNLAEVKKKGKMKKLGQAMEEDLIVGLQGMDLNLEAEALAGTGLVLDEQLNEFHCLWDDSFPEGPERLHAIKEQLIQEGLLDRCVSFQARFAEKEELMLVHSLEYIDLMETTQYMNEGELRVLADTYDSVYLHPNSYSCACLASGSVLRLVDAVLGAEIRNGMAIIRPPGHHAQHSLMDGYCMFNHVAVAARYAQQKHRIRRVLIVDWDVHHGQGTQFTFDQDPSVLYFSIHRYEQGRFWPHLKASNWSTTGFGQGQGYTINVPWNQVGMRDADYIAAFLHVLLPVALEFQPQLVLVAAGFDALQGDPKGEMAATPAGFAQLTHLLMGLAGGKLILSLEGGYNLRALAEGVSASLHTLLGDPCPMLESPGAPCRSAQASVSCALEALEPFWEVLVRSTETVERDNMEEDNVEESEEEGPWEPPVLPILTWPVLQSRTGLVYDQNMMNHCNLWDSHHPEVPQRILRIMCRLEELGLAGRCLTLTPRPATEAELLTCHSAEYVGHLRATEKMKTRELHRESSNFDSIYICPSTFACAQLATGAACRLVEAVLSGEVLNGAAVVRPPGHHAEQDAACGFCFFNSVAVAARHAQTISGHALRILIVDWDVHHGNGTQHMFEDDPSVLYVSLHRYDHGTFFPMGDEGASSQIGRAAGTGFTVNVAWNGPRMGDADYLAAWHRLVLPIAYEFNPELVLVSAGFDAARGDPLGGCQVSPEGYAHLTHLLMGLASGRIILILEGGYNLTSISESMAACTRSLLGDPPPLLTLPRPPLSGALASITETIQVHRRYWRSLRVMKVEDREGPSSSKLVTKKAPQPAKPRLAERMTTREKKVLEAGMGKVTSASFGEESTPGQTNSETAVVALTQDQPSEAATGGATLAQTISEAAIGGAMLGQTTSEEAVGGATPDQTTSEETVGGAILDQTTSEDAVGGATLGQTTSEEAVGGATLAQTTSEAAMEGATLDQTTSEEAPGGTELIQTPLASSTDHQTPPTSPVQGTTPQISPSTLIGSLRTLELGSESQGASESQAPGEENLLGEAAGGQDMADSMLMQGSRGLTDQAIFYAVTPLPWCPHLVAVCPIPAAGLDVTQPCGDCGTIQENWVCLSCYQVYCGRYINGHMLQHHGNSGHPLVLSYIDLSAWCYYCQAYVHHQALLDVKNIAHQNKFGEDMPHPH
The assay can be described thus: Inhibition of HDAC6 (unknown origin) incubated for 60 mins by microplate reader analysis.

Assay [3] concerns the target T2, Protein deacetylase HDAC6 (Homo sapiens) (UniProt Q9UBN7).
T2 sequence (whole entry): T1 sequence (Q9UBN7 whole entry)
The assay can be described thus: Inhibition of HDAC6 (unknown origin) at 10 nM incubated for 60 mins by microplate reader analysis relative to control.

For assay [4], the target named is Histone deacetylase 1 (Homo sapiens, UniProt Q13547). The assay can be described thus: Inhibition of HDAC1 (unknown origin) incubated for 60 mins using microplate reader analysis.
Histone deacetylase 1, sequence (Q13547 whole entry): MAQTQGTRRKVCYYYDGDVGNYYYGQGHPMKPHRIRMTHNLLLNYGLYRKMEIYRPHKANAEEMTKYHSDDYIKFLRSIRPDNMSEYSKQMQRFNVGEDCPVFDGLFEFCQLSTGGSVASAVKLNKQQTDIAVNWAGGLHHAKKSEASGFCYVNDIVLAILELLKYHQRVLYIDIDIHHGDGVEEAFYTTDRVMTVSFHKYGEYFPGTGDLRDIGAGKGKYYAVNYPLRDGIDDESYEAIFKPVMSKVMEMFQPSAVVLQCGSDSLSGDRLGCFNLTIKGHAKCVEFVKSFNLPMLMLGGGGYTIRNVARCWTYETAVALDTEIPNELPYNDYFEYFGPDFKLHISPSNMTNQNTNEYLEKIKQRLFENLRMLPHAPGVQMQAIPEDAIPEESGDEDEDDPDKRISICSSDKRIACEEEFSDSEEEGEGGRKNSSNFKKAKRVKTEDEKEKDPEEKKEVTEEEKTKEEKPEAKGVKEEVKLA
Assay [5] concerns the target Tyrosine-protein kinase JAK1 (Homo sapiens, UniProt P23458). The assay can be described thus: Inhibition of JAK1 (unknown origin) preincubated for 60 mins followed by reagent A addition and measured after 60 mins in presence of ATP by using microplate reader method.
Assay [6] concerns the target T3, Tyrosine-protein kinase JAK3 (Homo sapiens, UniProt P52333).
T3 sequence (P52333 whole entry): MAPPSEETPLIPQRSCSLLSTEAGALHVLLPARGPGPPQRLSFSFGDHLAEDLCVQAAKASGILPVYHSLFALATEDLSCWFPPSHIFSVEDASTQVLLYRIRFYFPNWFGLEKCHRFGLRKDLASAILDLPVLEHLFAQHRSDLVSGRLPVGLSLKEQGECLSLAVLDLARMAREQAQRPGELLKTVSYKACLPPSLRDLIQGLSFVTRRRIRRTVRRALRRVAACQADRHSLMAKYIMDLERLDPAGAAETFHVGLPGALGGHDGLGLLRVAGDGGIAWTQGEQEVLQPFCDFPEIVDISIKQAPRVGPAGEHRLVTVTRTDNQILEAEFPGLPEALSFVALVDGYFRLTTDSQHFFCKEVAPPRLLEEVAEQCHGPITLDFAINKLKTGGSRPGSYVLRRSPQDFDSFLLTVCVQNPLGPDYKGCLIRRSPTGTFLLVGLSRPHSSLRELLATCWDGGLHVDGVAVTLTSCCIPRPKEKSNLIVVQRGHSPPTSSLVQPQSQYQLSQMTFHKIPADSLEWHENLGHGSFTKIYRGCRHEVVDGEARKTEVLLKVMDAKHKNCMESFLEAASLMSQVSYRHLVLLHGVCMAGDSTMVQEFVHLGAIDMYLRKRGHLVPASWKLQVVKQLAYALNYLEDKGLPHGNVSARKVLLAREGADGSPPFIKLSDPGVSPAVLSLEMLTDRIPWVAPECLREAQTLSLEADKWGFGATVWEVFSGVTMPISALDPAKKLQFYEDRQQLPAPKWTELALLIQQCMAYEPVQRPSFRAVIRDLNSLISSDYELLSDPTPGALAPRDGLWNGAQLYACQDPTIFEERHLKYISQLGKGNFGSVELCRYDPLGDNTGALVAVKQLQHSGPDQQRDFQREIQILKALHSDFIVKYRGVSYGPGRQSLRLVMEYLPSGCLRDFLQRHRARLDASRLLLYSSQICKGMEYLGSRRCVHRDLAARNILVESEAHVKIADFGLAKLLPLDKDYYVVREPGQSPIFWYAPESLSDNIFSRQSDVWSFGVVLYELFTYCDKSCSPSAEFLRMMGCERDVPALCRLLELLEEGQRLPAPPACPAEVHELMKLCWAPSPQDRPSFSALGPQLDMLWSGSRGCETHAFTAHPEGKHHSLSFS
Nature of the assay: Inhibition of JAK3 (unknown origin) preincubated for 60 mins followed by reagent A addition and measured after 60 mins in presence of ATP by using microplate reader method.

Assay [7] concerns the target Non-receptor tyrosine-protein kinase TYK2 (Homo sapiens, UniProt P29597). The assay can be described thus: Inhibition of TYK2 (unknown origin) incubated for 40 min in presence of ATP by microplate reader analysis.

Tyrosine-protein kinase JAK1, sequence (P23458 whole entry): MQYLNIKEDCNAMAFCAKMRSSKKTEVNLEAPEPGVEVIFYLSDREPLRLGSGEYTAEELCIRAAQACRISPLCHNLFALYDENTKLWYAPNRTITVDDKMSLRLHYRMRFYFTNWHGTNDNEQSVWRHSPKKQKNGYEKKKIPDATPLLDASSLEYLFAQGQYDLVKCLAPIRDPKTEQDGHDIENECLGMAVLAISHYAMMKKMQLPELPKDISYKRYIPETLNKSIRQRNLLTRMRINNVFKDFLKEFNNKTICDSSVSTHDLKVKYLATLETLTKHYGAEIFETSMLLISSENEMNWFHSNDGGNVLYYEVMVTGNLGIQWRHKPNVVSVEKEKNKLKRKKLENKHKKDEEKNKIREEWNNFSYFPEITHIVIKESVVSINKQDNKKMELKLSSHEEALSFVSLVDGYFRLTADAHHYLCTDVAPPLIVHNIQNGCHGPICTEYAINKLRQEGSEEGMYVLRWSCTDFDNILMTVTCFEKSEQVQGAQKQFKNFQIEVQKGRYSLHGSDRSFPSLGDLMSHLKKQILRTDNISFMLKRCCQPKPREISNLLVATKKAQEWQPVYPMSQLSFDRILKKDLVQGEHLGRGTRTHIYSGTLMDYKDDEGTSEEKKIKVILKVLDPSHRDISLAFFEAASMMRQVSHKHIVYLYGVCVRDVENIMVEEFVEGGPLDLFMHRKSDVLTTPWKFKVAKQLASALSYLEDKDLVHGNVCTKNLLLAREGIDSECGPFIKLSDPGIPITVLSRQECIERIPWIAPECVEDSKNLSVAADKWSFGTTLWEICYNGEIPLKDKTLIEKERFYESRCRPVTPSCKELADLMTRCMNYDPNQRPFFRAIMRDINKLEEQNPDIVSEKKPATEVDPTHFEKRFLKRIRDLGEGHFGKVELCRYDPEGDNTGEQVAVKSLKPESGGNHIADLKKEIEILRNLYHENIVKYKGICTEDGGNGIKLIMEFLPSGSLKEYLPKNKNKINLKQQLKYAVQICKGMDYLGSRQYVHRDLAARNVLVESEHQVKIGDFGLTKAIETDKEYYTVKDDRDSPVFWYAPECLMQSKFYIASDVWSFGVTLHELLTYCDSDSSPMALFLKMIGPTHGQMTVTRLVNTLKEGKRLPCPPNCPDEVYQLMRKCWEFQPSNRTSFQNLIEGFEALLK
Tyrosine-protein kinase JAK2, sequence (O60674 whole entry): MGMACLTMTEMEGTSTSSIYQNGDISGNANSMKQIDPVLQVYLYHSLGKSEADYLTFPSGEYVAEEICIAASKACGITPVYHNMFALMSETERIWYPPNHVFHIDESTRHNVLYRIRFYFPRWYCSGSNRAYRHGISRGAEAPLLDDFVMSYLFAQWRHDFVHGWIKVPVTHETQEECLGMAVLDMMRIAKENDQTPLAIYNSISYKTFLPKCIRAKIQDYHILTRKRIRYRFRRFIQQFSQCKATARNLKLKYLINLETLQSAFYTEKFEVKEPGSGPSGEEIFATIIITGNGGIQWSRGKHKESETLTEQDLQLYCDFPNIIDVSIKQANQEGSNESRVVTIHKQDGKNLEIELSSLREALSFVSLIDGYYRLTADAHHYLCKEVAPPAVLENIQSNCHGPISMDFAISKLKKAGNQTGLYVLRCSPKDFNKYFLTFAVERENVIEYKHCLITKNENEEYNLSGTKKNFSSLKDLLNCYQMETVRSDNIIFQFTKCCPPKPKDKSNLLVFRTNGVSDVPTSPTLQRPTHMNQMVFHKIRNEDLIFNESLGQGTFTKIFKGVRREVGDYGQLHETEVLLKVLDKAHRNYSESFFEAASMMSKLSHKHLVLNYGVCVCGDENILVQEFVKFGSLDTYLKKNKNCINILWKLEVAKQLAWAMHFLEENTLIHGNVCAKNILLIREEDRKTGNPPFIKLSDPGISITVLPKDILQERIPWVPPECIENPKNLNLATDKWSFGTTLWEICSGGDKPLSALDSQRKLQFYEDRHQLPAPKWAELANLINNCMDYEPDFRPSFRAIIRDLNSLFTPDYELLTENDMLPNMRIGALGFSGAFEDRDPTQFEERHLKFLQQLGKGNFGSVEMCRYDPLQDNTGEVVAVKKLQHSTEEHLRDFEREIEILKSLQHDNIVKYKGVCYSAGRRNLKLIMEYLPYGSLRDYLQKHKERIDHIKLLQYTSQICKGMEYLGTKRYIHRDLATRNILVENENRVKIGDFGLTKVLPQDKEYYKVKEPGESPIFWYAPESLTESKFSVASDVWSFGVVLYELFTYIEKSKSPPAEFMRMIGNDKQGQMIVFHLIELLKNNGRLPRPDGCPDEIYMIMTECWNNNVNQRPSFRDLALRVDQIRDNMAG
Non-receptor tyrosine-protein kinase TYK2, sequence (P29597 whole entry): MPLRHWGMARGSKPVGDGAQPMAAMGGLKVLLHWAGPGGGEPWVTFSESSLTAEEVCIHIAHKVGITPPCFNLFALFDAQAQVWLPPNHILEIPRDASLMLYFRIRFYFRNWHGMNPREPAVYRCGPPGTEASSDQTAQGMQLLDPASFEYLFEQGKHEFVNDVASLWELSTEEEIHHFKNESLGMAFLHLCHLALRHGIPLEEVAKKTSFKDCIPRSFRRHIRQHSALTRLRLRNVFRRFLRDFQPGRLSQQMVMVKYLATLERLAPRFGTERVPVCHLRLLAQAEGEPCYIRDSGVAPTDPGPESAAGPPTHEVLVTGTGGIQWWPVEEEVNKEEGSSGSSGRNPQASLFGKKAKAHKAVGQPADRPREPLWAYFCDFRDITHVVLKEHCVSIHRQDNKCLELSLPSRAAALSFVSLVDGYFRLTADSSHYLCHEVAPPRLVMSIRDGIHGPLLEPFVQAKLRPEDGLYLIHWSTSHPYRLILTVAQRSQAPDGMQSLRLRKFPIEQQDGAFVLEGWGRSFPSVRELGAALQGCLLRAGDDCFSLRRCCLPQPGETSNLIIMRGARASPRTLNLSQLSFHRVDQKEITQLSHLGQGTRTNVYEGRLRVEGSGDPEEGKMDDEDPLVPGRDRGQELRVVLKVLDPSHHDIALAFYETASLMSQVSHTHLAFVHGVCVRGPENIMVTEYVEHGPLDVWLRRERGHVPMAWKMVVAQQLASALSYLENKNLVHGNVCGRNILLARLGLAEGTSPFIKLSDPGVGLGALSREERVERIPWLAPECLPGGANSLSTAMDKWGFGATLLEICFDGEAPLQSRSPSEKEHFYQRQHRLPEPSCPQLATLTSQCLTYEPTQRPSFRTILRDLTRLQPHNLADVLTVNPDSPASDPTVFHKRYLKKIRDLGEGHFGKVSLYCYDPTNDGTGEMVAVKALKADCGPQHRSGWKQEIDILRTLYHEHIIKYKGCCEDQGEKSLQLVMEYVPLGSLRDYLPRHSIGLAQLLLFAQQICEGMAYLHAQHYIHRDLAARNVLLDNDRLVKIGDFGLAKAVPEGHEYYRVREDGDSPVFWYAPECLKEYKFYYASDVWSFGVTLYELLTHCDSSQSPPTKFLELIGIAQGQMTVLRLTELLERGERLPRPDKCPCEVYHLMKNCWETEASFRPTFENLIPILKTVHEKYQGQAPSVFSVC

For the compound `O=C(CCCCCn1cc(Nc2ncc3ccn(Cc4ccccc4)c3n2)cn1)NO`, the IC50 – broadly, the concentration that gives 50% inhibition – was 0.033 µM in assay [1] and 0.0138 µM in assay [2].
For `CS(=O)(=O)c1ccc(-n2ccc3cnc(Nc4cnn(CCCCCC(=O)NO)c4)nc32)cc1`, in that order: 0.0098 µM and 0.0108 µM.
Regarding `Cc1ccc(Cn2ccc3cnc(Nc4cnn(CCCCCC(=O)NO)c4)nc32)cc1`, the IC50 in assay [1] is over 0.1 µM. Besides, in assay [3], the inhibition (as a rule, the percentage by which the read-out fell short of the control) was 34%.
Turning to `O=C(CCCCCCn1cc(Nc2ncc3ccn(-c4ccc(F)cc4)c3n2)cn1)NO`, the IC50 in assay [1] amounted to 0.0329 µM; in assay [2], 0.0216 µM.
In the case of `Cc1ccc(Cn2ccc3cnc(Nc4cnn(CCCCCCC(=O)NO)c4)nc32)cc1`, in assay [1], the IC50 is over 0.1 µM. Besides, the inhibition in assay [3] was 38%.
Consider `O=C(CCCCCCn1cc(Nc2ncc3ccn(C4CCCC4)c3n2)cn1)NO`, for which the IC50 in assay [1] was over 0.1 µM; in assay [2] it was 0.022 µM.
For `COc1cccc(Cn2ccc3cnc(Nc4cnn(CCCCCC(=O)NO)c4)nc32)c1`, in that order: 0.124 µM and 0.0376 µM.
The corresponding values for `O=C(CCCCCCn1cc(Nc2ncc3ccn(-c4ccc(Br)cc4)c3n2)cn1)NO` are 0.0548 µM and 0.0202 µM.
Take `O=C(CCCCCn1cc(Nc2ncc3ccn(Cc4cccc(F)c4)c3n2)cn1)NO`: the half-maximal inhibitory concentration (IC50) in assay [1] was 0.0041 µM; in assay [2], 0.0137 µM; in assay [4] it was 0.173 µM; in assay [5] it was 0.0087 µM; in assay [6], 0.0126 µM.
For `COc1cccc(Cn2ccc3cnc(Nc4cnn(CCCCCCC(=O)NO)c4)nc32)c1`, the IC50 was determined as 0.209 µM in assay [1] and 0.0288 µM in assay [2].
The corresponding values for `O=C(CCCCCCn1cc(Nc2ncc3ccn(Cc4ccccc4Cl)c3n2)cn1)NO` are 0.0308 µM and 0.0415 µM.
Regarding `O=C(CCCCCn1cc(Nc2ncc3ccn(CCc4ccccc4)c3n2)cn1)NO`, the IC50 in assay [1] is over 0.1 µM. Moreover, the inhibition in assay [3] is 41%.
Consider `O=C(CCCCCn1cc(Nc2ncc3ccn(Cc4cccc(Cl)c4)c3n2)cn1)NO`, for which the IC50 in assay [1] came to 0.0177 µM; in assay [2], 0.0344 µM.
For `COc1ccc(Cn2ccc3cnc(Nc4cnn(CCCCCC(=O)NO)c4)nc32)cc1`, the IC50 in assay [1] is over 0.1 µM. The compound further came in with an inhibition in assay [3] of 46%.
`O=C(CCCCCCn1cc(Nc2nc(Nc3cccc(Cl)c3)c3ccccc3n2)cn1)NO`: the IC50 in assay [1] turned out to be 9.4 µM.
Turning to `COc1ccc(Cn2ccc3cnc(Nc4cnn(CCCCCCC(=O)NO)c4)nc32)cc1`, the IC50 in assay [1] was over 0.1 µM. In addition, the inhibition in assay [3] is 40%.
`O=C(CCCCCCn1cc(Nc2ncc3ccn(CC4CC4)c3n2)cn1)NO`: the IC50 in assay [1] was over 0.1 µM; in assay [2], 0.016 µM.
The corresponding values for `CS(=O)(=O)c1ccc(-n2ccc3cnc(Nc4cnn(CCCCCCC(=O)NO)c4)nc32)cc1` are 0.0157 µM and 0.0059 µM.
For the compound `O=C(CCCCCn1cc(Nc2ncc3ccn(Cc4ccccc4F)c3n2)cn1)NO`, the IC50 turned out to be 0.01 µM in assay [1]; 0.0153 µM in assay [2]; 0.145 µM in assay [4]; 0.0323 µM in assay [5]; 0.0184 µM in assay [6]; 0.0133 µM in assay [7].
On to `O=C(CCCCCn1cc(Nc2ncc3ccn(Cc4ccc(Cl)cc4)c3n2)cn1)NO`, for which, in assay [1], the IC50 was over 0.1 µM. The compound further yielded an inhibition in assay [3] of 38%.
`O=C(CCCCCCn1cc(Nc2ncc3ccn(-c4ccccc4)c3n2)cn1)NO`: the IC50 in assay [1] was 0.0168 µM; in assay [2] it was 0.0131 µM; in assay [4], 0.0521 µM; in assay [5], 0.0196 µM; in assay [6], 0.0812 µM; in assay [7], 0.0235 µM.
For the compound `O=C(CCCCCCn1cc(Nc2ncc3ccn(CCc4ccccc4)c3n2)cn1)NO`, the 50% inhibitory concentration (IC50) in assay [1] is over 0.1 µM. In assay [3], the inhibition worked out at 49%.
Turning to `O=C(CCCCCCn1cc(Nc2ncc3ccn(-c4ccc(Cl)cc4)c3n2)cn1)NO`, the half-maximal inhibitory concentration (IC50) came out at 0.0482 µM in assay [1] and 0.0334 µM in assay [2].
With `O=C(CCCCCCn1cc(Nc2ncc3ccn(Cc4ccc(Cl)cc4)c3n2)cn1)NO`, the IC50 in assay [1] was over 0.1 µM. For the same compound, the inhibition in assay [3] is 39%.
For `O=C(CCCCCCn1cc(Nc2ncc3ccn(Cc4ccc(F)cc4)c3n2)cn1)NO`, in that order: over 0.1 µM and 62%.
For the compound `O=C(CCCCCn1cc(Nc2ncc3ccn(-c4ccc(Br)cc4)c3n2)cn1)NO`, the results for the IC50 in assay [1] and in assay [2] were 0.0175 µM and 0.0113 µM, respectively.
For the compound `O=C(CCCCCn1cc(Nc2ncc3ccn(Cc4ccccc4Cl)c3n2)cn1)NO`, the values for the IC50 in assay [1] and in assay [2] were 0.0248 µM and 0.045 µM, respectively.
For `O=C(CCCCCCn1cc(Nc2ncc3ccn(Cc4cccc(Cl)c4)c3n2)cn1)NO`, in that order: 0.0398 µM and 0.0368 µM.
In the case of `O=C(CCCCCCn1cc(Nc2nccc(-c3cc(F)cc(F)c3)n2)cn1)NO`, in assay [1], the IC50 worked out at 2.66 µM.
`O=C(CCCCCn1cc(Nc2ncc3ccn(Cc4ccc(F)cc4)c3n2)cn1)NO`: in assay [1], the IC50 is over 0.1 µM. This compound also displayed an inhibition in assay [3] of 46%.
Take `O=C(CCCCCCn1cc(Nc2ncc3ccn(Cc4ccccc4)c3n2)cn1)NO`: the IC50 amounted to 0.051 µM in assay [1] and 0.0125 µM in assay [2].
For `O=C(CCCCCCn1cc(Nc2ncc3ccn(CC4CCCCC4)c3n2)cn1)NO`, in that order: 0.069 µM and 0.088 µM.
